Data published in patent publication US6841661B2, “Glycopeptide antibacterial compounds, compositions containing same and methods of using same” (Princeton Univerisity, priority 1999, dated 2005).

Columns and labels:
[1] = test system: E. faecium CL 4931 (VanA); experiment: microbe, parasite or virus in culture; assay type: cell-based; design: CL4931 (in vitro testing): unit not given here; settings: Tables 7 and 8; unit not given
Source text: (§1) National Committee for Clinical Laboratory Standards (NCCLS) guidelines [Methods for Dilution Antimicrobial Susceptibility Tests for Bacteria that Grow Aerobically-Fourth Edition; Approved Standard (NCCLS Document M7-A4, January 1997)] are used to establish the assay, although variations are made to optimize the published method according to the specific needs of the present investigation.
(§2) The test panel currently includes eight enterococci and 13 staphylococci, which are selected based upon their antibiotic susceptibility profiles. The methicillin-sensitive Staphylococcus aureus (MSSA) strain MB2985 (Smith isolate) is used to assesses the potential for serum protein binding of the compounds. The paired Gram-negative strains ASP #49 (envA-) and ASP #50 (envA+) (M. Salvatore/N. Lee) are included to judge membrane effects. Table 3 presents a detailed description of the strains included in the panel, including some of the sources of the strains of bacteria.
(§3) The glycopeptide antibiotic teicoplanin is included whenever possible.
(§4) TSB, containing 10% HS* for vancomycin intermediate S. aurcus/methicillin-resistant S. aureus (VISA/MRSA) strains, is inoculated from an appropriate source (frozen broth or agar slant) and grown approximately 17 hr at 35° C. with shaking at 220 rpm. Cultures are grown in tubes with a volume of 5 ml for enterococci and 2 ml for all other strains.
(§5) Four milliliter (4 ml) overnight culture is added to 36 ml physiological saline to obtain tenfold dilutions (enterococci). Overnight culture (0.4 ml) is added to 39.6 ml saline to obtain 100-fold dilutions (all strains except enterococci). Diluted cultures are maintained on ice until time of inoculation of test plates.
(§6) The number of CFU/mL is determined on BHI agar plates, although this is not done routinely because titers of overnight cultures are relatively constant. The test media include: • BHI for enterococci and VISA/MRSA; • MH II (i.e., cation-adjusted Mueller-Hinton broth) for MRS, MSS and E. coli.; • MH II+HSA for MSSA is prepared as follows: • a. 2×MHII+86mg/ml HSA • b. Dissolve 4.3 g HSA in 50 ml autoclaved 2x MH II. • c. pH to 7.0 by adding 2M MOPS, sodium. • d. Filter sterilize using 0.22 μm Coming cellulose acetate filter, used because of reported low protein binding. • e. 1×MH II+43 mg/ml HSA • f. Dilute the 2×medium twofold and filter as above. 5.8.6. Preparation of Test Plates
(§7) Using a Denley liquid handling system (or similar automatic device), 100 μ1×medium is added to each well in columns 2-12 of a 96-well microtiter dish. Using a multichannel pipettor, 100 μl 2×medium is added to each well in column 1. Plates may be filled on the day prior to assay, wrapped in plastic bags and refrigerated.
(§8) Vancomycin, Schering 29482, and teicoplanin are prepared on a weight per volume basis using 10 mM 3-(N-morpholino)propane-sulfonic acid (MOPS) buffer pH 7. Test compounds are received in solution in appropriate solvent (typically as 1 mg/ml in DMSO) or are dissolved in appropriate solvent prior to further dilution in 10 mM MOPS buffer, ph7. Consistent with NCCLS guidelines, antibiotics are handled aseptically but are not otherwise sterilized.
(§9) 100 μl appropriately diluted antibiotic solution is added to the first well of the designated row of the 96-well microtiter dish and serially diluted by twofold across the row using the Denley liquid handling system. With the aid of a Dynatech NEC 2000 inoculator, each well of the microtiter dish is inoculated with 1.5 μl diluted overnight culture, yielding approximately 1-5×10^6 CFU/ml for enterococci and approximately 3-7×10^5 CFU/ml for all other strains. Dishes are placed in stacks of no more than five, wrapped in plastic bags and incubated at 35° C. • Indication of result(s) type (% INH, IC50, Zone size, etc.) • MIC=minimum inhibitory concentration ps 5.8.9. Interpretation of the Results on the Basis of Activity […]

[2] = test system: E. faecium CL 5053 (VanA); experiment: microbe, parasite or virus in culture; assay type: cell-based; design: CL5053 (in vitro testing): unit not given here; settings: Tables 7 and 8; unit not given
Source text: as §1, §2, §3, §4, §5, §6, §7, §8, §9

[3] = test system: E. faecium CL 5242 (VanA); experiment: microbe, parasite or virus in culture; assay type: cell-based; design: CL5242 (in vitro testing): unit not given here; settings: Tables 7 and 8; unit not given
Source text: as §1, §2, §3, §4, §5, §6, §7, §8, §9

[4] = test system: E. faecalis CL 4877 (VanB); experiment: microbe, parasite or virus in culture; assay type: cell-based; design: CL4877 (in vitro testing): unit not given here; settings: Tables 7 and 8; unit not given
Source text: as §1, §2, §3, §4, §5, §6, §7, §8, §9

[5] = test system: CL 4931, CL 5053, CL 5242 and CL 4877; assay type: cell-based, E. faecium, E. faecalis; design: unit not given here; settings: mean of CL4931, CL5053, CL5242, CL4877; unit not given
Source text: as §1, §2, §3, §4, §5, §6, §7, §8, §9

| Structure (SMILES) | CL4931 (in vitro testing) [1] | CL5053 (in vitro testing) [2] | CL5242 (in vitro testing) [3] | CL4877 (in vitro testing) [4] | Mean [5] |
| --- | --- | --- | --- | --- | --- |
| CNC(CC(C)C)C(=O)NC1C(=O)NC(CC(N)=O)C(=O)NC2C(=O)NC3C(=O)NC(C(=O)NC(C(=O)O)c4cc(O)cc(O)c4-c4cc3ccc4O)C(O)c3ccc(c(Cl)c3)Oc3cc2cc(c3OC2OC(CNCCCN)C(O)C(O)C2OC2CC(C)(NCc3ccc(OCc4ccc(Cl)c(Cl)c4)cc3)C(O)C(C)O2)Oc2ccc(cc2Cl)C1O (centres unmarked) [Compound 161] | 16 | 16 | 4 | 16 | 13.0 |
| CNC(CC(C)C)C(=O)NC1C(=O)NC(CC(N)=O)C(=O)NC2C(=O)NC3C(=O)NC(C(=O)NC(C(=O)O)c4cc(O)cc(O)c4-c4cc3ccc4O)C(O)c3ccc(c(Cl)c3)Oc3cc2cc(c3OC2OC(CN3CCCC3)C(O)C(O)C2OC2CC(C)(NCc3ccc(OCc4ccc(Cl)c(Cl)c4)cc3)C(O)C(C)O2)Oc2ccc(cc2Cl)C1O (centres unmarked) [Compound 163] | 16 | 32 | 4 | 2 | 13.5 |
| CNC(CC(C)C)C(=O)NC1C(=O)NC(CC(N)=O)C(=O)NC2C(=O)NC3C(=O)NC(C(=O)NC(C(=O)O)c4cc(O)cc(O)c4-c4cc3ccc4O)C(O)c3ccc(c(Cl)c3)Oc3cc2cc(c3OC2OC(CNC3CC3)C(O)C(O)C2OC2CC(C)(NCc3ccc(OCc4ccc(Cl)c(Cl)c4)cc3)C(O)C(C)O2)Oc2ccc(cc2Cl)C1O (centres unmarked) [Compound 165] | 16 | 16 | 8 | 16 | 14.0 |
| CNC(CC(C)C)C(=O)NC1C(=O)NC(CC(N)=O)C(=O)NC2C(=O)NC3C(=O)NC(C(=O)NC(C(=O)O)c4cc(O)cc(O)c4-c4cc3ccc4O)C(O)c3ccc(c(Cl)c3)Oc3cc2cc(c3OC2OC(CN3CCC(N(C)C)C3)C(O)C(O)C2OC2CC(C)(NCc3ccc(OCc4ccc(Cl)c(Cl)c4)cc3)C(O)C(C)O2)Oc2ccc(cc2Cl)C1O (centres unmarked) [Compound 166] | 8 | 16 | 2 | 32 | 14.5 |
| CNC(CC(C)C)C(=O)NC1C(=O)NC(CC(N)=O)C(=O)NC2C(=O)NC3C(=O)NC(C(=O)NC(C(=O)O)c4cc(O)cc(O)c4-c4cc3ccc4O)C(O)c3ccc(c(Cl)c3)Oc3cc2cc(c3OC2OC(CN3CCNCC3)C(O)C(O)C2OC2CC(C)(NCc3ccc(OCc4ccc(Cl)c(Cl)c4)cc3)C(O)C(C)O2)Oc2ccc(cc2Cl)C1O (centres unmarked) [Compound 167] | 8 | 16 | 4 | 32 | 15.0 |
| CNC(CC(C)C)C(=O)NC1C(=O)NC(CC(N)=O)C(=O)NC2C(=O)NC3C(=O)NC(C(=O)NC(C(=O)O)c4cc(O)cc(O)c4-c4cc3ccc4O)C(O)c3ccc(c(Cl)c3)Oc3cc2cc(c3OC2OC(CN3CCCCC3)C(O)C(O)C2OC2CC(C)(NCc3ccc(OCc4ccc(Cl)c(Cl)c4)cc3)C(O)C(C)O2)Oc2ccc(cc2Cl)C1O (centres unmarked) [Compound 168] | 32 | 16 | 8 | 1 | 18.3 |
| CNC(CC(C)C)C(=O)NC1C(=O)NC(CC(N)=O)C(=O)NC2C(=O)NC3C(=O)NC(C(=O)NC(C(=O)O)c4cc(O)cc(O)c4-c4cc3ccc4O)C(O)c3ccc(c(Cl)c3)Oc3cc2cc(c3OC2OC(CN3CCOCC3)C(O)C(O)C2OC2CC(C)(NCc3ccc(OCc4ccc(Cl)c(Cl)c4)cc3)C(O)C(C)O2)Oc2ccc(cc2Cl)C1O (centres unmarked) [Compound 169] | 32 | 32 | 8 | 1 | 18.3 |
| CNC(CC(C)C)C(=O)NC1C(=O)NC(CC(N)=O)C(=O)NC2C(=O)NC3C(=O)NC(C(=O)NC(C(=O)O)c4cc(O)cc(O)c4-c4cc3ccc4O)C(O)c3ccc(c(Cl)c3)Oc3cc2cc(c3OC2OC(CN3CCC(N(C)C)CC3)C(O)C(O)C2OC2CC(C)(NCc3ccc(OCc4ccc(Cl)c(Cl)c4)cc3)C(O)C(C)O2)Oc2ccc(cc2Cl)C1O (centres unmarked) [Compound 170] | 16 | 32 | 8 | 32 | 22.0 |
| CNC(CC(C)C)C(=O)NC1C(=O)NC(CC(N)=O)C(=O)NC2C(=O)NC3C(=O)NC(C(=O)NC(C(=O)O)c4cc(O)cc(O)c4-c4cc3ccc4O)C(O)c3ccc(c(Cl)c3)Oc3cc2cc(c3OC2OC(CN)C(O)C(O)C2OC2CC(C)(NCc3ccc(OCc4ccc(Cl)cc4)cc3)C(O)C(C)O2)Oc2ccc(cc2Cl)C1O (centres unmarked) [Compound 171] | 4 | 8 | 1 | 16 | 7.25 |
| CNC(CC(C)C)C(=O)NC1C(=O)NC(CC(N)=O)C(=O)NC2C(=O)NC3C(=O)NC(C(=O)NC(C(=O)O)c4cc(O)cc(O)c4-c4cc3ccc4O)C(O)c3ccc(c(Cl)c3)Oc3cc2cc(c3OC2OC(CN)C(O)C(O)C2OC2CC(C)(NCc3ccc(OCc4cccc(Cl)c4)cc3)C(O)C(C)O2)Oc2ccc(cc2Cl)C1O (centres unmarked) [Compound 172] | 16 | 16 | 2 | >16 | 12.5 |
| CNC(CC(C)C)C(=O)NC1C(=O)NC(CC(N)=O)C(=O)NC2C(=O)NC3C(=O)NC(C(=O)NC(C(=O)O)c4cc(O)cc(O)c4-c4cc3ccc4O)C(O)c3ccc(c(Cl)c3)Oc3cc2cc(c3OC2OC(CN)C(O)C(O)C2OC2CC(C)(NCc3ccc(OCc4ccc(Cl)cc4Cl)cc3)C(O)C(C)O2)Oc2ccc(cc2Cl)C1O (centres unmarked) [Compound 173] | 8 | 8 | 1 | 2 | 4.75 |
| CNC(CC(C)C)C(=O)NC1C(=O)NC(CC(N)=O)C(=O)NC2C(=O)NC3C(=O)NC(C(=O)NC(C(=O)O)c4cc(O)cc(O)c4-c4cc3ccc4O)C(O)c3ccc(c(Cl)c3)Oc3cc2cc(c3OC2OC(CN)C(O)C(O)C2OC2CC(C)(NCc3ccc(OCc4cc(Cl)ccc4Cl)cc3)C(O)C(C)O2)Oc2ccc(cc2Cl)C1O (centres unmarked) [Compound 174] | 16 | 16 | 8 | 16 | 14 |
| CNC(CC(C)C)C(=O)NC1C(=O)NC(CC(N)=O)C(=O)NC2C(=O)NC3C(=O)NC(C(=O)NC(C(=O)O)c4cc(O)cc(O)c4-c4cc3ccc4O)C(O)c3ccc(c(Cl)c3)Oc3cc2cc(c3OC2OC(CN)C(O)C(O)C2OC2CC(C)(NCc3ccc(OCc4cc(Cl)cc(Cl)c4)cc3)C(O)C(C)O2)Oc2ccc(cc2Cl)C1O (centres unmarked) [Compound 175] | 4 | 4 | 2 | 2 | 3 |
